# Test results from US20210395239A1 (Hoffmann-La Roche Inc., priority 2018, published 2021).
# Tests used:
# hERG channel = biological target: T1, hERG channel (Homo sapiens, UniProt Q12809); experiment: hERG channel inhibition assay (patch-clamp, CHOhERG cells); assay type: cell-based; conditions: for IC20: human, CHO cells stably expressing hERG (CHOhERG); for IC20 / IC50: patch-clamp, CHOhERG cells; for hERG IC20/TLR7 IC50 / hERG IC20/TLR8 IC50 / hERG IC20/TLR9 IC50: safety ratio
# T1 construct: expressed in transfected cells; host or cells: CHO (Chinese hamster ovary)
# Summary of the method: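 Whole-cell voltage-clamp recordings used CHO cells stably expressing human hERG, with IKhERG evoked by a voltage protocol at 0.1 Hz. Increasing compound concentrations were applied, each for 3–10 min to reach steady state, and current amplitude and kinetics were expressed relative to control (100%).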
# CYP2D6 = biological target: T2, CYP2D6 (Homo sapiens, UniProt P10635); experiment: CYP inhibition assay in human liver microsome, CYP2D6; assay type: in vitro ADME; conditions: human, human liver microsomes, probe dextromethorphan 5 μM, substrate dextromethorphan 5 μM, second value of 2C9/2D6/3A4
# T2 construct: tissue BD-Gentest 452117; host or cells: human liver microsomes
# Experimental: This is a high throughput screening assay used for assessment of reversible inhibition of CYP2C9, CYP2D6, and CYP3A4 activity of test compounds in human liver microsome (HLM) in early discovery stage.
# 10 mM DMSO stock solutions of test compounds were diluted in DMSO to generate 2 mM intermediate stock solution. 250 nL, of intermediate stock solution were transferred in duplicate into 3 separate 384 well microtitre plates (assay-ready plates). A mixture of HLM and each substrate was made up. 45 μL of HLM substrate mix was then transferred to each well of an assay ready plate and mixed. The negative (solvent) and positive controls (standard inhibitor for each CYP) were included in each assay ready plate. The assay ready plate was warmed to 37° C. in an incubator over 10 minutes. 5 μL pre-warmed NADPH regenerating system was added to each incubation well to start the reaction. Final incubation volume was 50 μL. The assay plate then was placed back in the 37° C. incubator. After incubation (10 minutes for CYP2D6) for 5 minutes, incubates were quenched by addition of 50 μL 100% acetonitrile containing internal standards (400 ng/mL 13C6-4′-OH-Diclofenac, 20 ng/mL D3-Dextrorphan and 20 ng/mL D4-1′OH-Midazolam). The supernatants were collected for RapidFire/MS/MS analysis.
# RapidFire online solid phase extraction/sample injection system (Agilent) coupled with API4000 triple quadrupole mass spectrometer (AB Sciex) were used for sample analysis. The mobile phase composed of acetonitrile and water supplemented with 0.1% formic acid. A C4 solid phase extraction cartridge is used for sample separation. MS detection is achieved in positive ion MRM mode.
# Peak areas for substrate, metabolite and internal standard are determined using the RapidFire integrator software (version 3.6.12009.12296). Peak area ratios (PAR) of metabolite and internal standard (stable-labelled metabolite) are then calculated. The measurement window for each experiment is then defined:
# PAR (0% activity)=average PAR for all incubations containing concentrated inhibitor; Par (100% activity)=average PAR for all incubations containing no inhibitor (DMSO controls); % Activity (test inhibitor)=[PAR (test inhibitor)−PAR (0% activity)]/[PAR (100% activity)−PAR (0% activity)]; % Inhibition (test inhibitor)=100-% Activity (test inhibitor).
# T2 sequence (P10635 whole entry): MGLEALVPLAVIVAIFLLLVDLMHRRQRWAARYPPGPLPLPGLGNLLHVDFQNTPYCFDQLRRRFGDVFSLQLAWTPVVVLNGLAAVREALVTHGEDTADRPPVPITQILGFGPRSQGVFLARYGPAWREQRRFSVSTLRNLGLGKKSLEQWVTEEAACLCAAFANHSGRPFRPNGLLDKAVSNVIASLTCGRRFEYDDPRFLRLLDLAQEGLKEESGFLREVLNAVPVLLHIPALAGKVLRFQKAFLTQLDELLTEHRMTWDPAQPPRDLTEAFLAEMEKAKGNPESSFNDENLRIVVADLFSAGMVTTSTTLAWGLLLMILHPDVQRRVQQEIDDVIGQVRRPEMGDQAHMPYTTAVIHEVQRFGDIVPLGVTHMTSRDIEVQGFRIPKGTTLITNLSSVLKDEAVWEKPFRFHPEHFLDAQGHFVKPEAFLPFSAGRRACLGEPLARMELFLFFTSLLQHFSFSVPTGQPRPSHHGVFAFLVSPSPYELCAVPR
# T1 sequence (Q12809 whole entry): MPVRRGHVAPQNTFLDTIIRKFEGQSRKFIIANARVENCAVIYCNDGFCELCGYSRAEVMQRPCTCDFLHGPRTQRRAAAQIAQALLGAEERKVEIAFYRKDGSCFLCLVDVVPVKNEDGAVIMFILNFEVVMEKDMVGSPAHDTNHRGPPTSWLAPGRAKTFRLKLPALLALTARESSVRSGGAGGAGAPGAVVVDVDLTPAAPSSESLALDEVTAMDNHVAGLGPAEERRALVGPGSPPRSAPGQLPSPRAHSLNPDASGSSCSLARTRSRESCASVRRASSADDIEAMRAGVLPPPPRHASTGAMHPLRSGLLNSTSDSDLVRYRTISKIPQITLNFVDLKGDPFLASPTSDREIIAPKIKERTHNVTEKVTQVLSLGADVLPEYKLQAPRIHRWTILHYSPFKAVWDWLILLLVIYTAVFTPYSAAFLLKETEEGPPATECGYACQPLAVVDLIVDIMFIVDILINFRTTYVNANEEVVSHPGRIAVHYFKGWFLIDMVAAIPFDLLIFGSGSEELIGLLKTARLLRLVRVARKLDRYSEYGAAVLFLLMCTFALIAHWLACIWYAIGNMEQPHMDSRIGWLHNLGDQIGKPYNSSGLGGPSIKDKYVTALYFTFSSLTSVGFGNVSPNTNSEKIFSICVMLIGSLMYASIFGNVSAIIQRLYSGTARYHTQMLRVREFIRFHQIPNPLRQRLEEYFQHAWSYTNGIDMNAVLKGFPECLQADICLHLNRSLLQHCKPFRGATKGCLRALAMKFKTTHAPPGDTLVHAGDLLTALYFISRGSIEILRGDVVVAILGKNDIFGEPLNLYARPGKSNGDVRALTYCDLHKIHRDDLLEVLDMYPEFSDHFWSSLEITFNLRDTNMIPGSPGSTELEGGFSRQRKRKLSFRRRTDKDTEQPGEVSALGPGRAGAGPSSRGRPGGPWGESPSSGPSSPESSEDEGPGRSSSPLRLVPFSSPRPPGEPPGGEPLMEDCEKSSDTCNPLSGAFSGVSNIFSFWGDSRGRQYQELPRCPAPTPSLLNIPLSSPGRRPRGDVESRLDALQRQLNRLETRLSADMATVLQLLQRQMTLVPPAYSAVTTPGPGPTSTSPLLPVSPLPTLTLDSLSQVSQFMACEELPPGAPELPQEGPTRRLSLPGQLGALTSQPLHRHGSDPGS
SMILES,"inhibition at 10 min, 10 µM (CYP2D6) [%]",IC20 (hERG channel) [µM],IC50 (hERG channel) [µM],hERG IC20/TLR7 IC50 (hERG channel),hERG IC20/TLR8 IC50 (hERG channel),hERG IC20/TLR9 IC50 (hERG channel)
"Cc1cc(N2CCNCC2)nc(N2CCN(C[C@H]3CN(c4ccc(C#N)c5nccnc45)C[C@@H](C)O3)CC2)n1 [Example 114, 8-[(2R,6S)-2-methyl-6-[[4-(4-methyl-6-piperazin-1-yl-pyrimidin-2-yl)piperazin-1-yl]methyl]morpholin-4-yl]quinoxaline-5-carbonitrile]",32,> 10,> 20,>3333,>10000,>161
"CO[C@H]1CN(c2cc(C)nc(N3CCN(C[C@H]4CN(c5ccc(C#N)c6nccnc56)C[C@@H](C)O4)CC3)n2)C[C@@H]1N [Example 104, 8-[(2S,6R)-2-[[4-[4-[(3S,4S)-3-amino-4-methoxy-pyrrolidin-1-yl]-6-methyl-pyrimidin-2-yl]piperazin-1-yl]methyl]-6-methyl-morpholin-4-yl]quinoxaline-5-carbonitrile]",15,> 10,> 20,>454,>10000,>142
"C[C@@H]1CN(c2ccc(C#N)c3nccnc23)C[C@H](CN2CCN(c3ccnc(N4C[C@H](N)[C@@H](F)C4)n3)CC2)O1 [Example 107, 8-[(2S,6R)-2-[[4-[2-[(3S,4S)-3-amino-4-fluoro-pyrrolidin-1-yl]pyrimidin-4-yl]piperazin-1-yl]methyl]-6-methyl-morpholin-4-yl]quinoxaline-5-carbonitrile]",16,–,–,–,–,–
"C[C@@H]1CN(c2ccc(C#N)c3nccnc23)C[C@H](CN2CCN(c3nccc(N4C[C@@H](N)[C@H](F)C4)n3)CC2)O1 [Example 119, 8-[(2S,6R)-2-[[4-[4-[(3R,4R)-3-amino-4-fluoro-pyrrolidin-1-yl]pyrimidin-2-yl]piperazin-1-yl]methyl]-6-methyl-morpholin-4-yl]quinoxaline-5-carbonitrile]",-8.5,–,–,–,–,–
"Cc1cc(N2CCN(C[C@H]3CN(c4ccc(C#N)c5nccnc45)C[C@@H](C)O3)CC2)nc(N2CC(N)C2)n1 [Example 112, 8-[(2S,6R)-2-[[4-[2-(3-aminoazetidin-1-yl)-6-methyl-pyrimidin-4-yl]piperazin-1-yl]methyl]-6-methyl-morpholin-4-yl]quinoxaline-5-carbonitrile]",-2,–,–,–,–,–
"Cc1ccc(N2C[C@H](CN3CCN(c4ccnc(N5CCNCC5)n4)CC3)O[C@H](C)C2)c2nccnc12 [Example 117, (2R,6S)-2-methyl-4-(8-methylquinoxalin-5-yl)-6-[[4-(2-piperazin-1-ylpyrimidin-4-yl)piperazin-1-yl]methyl]morpholine]",4.5,–,–,–,–,–

# Now from value to molecule, other results behind:
"inhibition at 10 min, 10 µM (CYP2D6) [%]",SMILES,IC20 (hERG channel) [µM],IC50 (hERG channel) [µM],hERG IC20/TLR7 IC50 (hERG channel),hERG IC20/TLR8 IC50 (hERG channel),hERG IC20/TLR9 IC50 (hERG channel)
-2.5,"[2H]c1ccc2c(N3C[C@H](CN4CCN(c5ccc(N6CC(C)(N)C6)nc5)CC4)O[C@H](C)C3)ccc(C#N)c2n1 [Example 132, 5-[(2S,6R)-2-[[4-[6-(3-amino-3-methyl-azetidin-1-yl)-3-pyridyl]piperazin-1-yl]methyl]-6-methyl-morpholin-4-yl]-2-deuterio-quinoline-8-carbonitrile]",> 10,> 20,>434,>625,>71
20,"CO[C@@H]1CN(c2ccc(N3CCN(C[C@H]4CN(c5ccc(C#N)n6ncc(F)c56)C[C@@H](C)O4)CC3)cn2)C[C@H]1N [Example 166, 4-[(2S,6R)-2-[[4-[6-[(3R,4R)-3-amino-4-methoxy-pyrrolidin-1-yl]-3-pyridyl]piperazin-1-yl]methyl]-6-methyl-morpholin-4-yl]-3-fluoro-pyrazolo[1,5-a]pyridine-7-carbonitrile]",8,> 20,380,258,173
9.5,"[2H]c1nc2c(C#N)ccc(N3C[C@H](CN4CCN(c5nc(C)cc(N6CC(N)C6)n5)CC4)O[C@H](C)C3)c2nc1[2H] [Example 124, 8-[(2S,6R)-2-[[4-[4-(3-aminoazetidin-1-yl)-6-methyl-pyrimidin-2-yl]piperazin-1-yl]methyl]-6-methyl-morpholin-4-yl]-2,3-dideuterio-quinoxaline-5-carbonitrile]",> 10,> 20,>2000,>10000,>322
-10.5,"C[C@@H]1CN(c2ccc(C#N)n3ncc(F)c23)C[C@H](CN2CCN(c3ccc(N4CC(C)(N)C4)nc3)CC2)O1 [Example 154, 4-[(2S,6R)-2-[[4-[6-(3-amino-3-methyl-azetidin-1-yl)-3-pyridyl]piperazin-1-yl]methyl]-6-methyl-morpholin-4-yl]-3-fluoro-pyrazolo[1,5-a]pyridine-7-carbonitrile]",> 10,> 20,>312,>200,>89
1,"[2H]c1ccc2c(N3C[C@H](CN4CCN(c5ccc(N[C@H]6CNC[C@H]6F)nc5)CC4)O[C@H](C)C3)ccc(C#N)c2n1 [Example 162, 2-deuterio-5-[(2S,6R)-2-[[4-[6-[[(3S,4R)-4-fluoropyrrolidin-3-yl]amino]-3-pyridyl]piperazin-1-yl]methyl]-6-methyl-morpholin-4-yl]quinoline-8-carbonitrile]",–,–,–,–,–
-30,"[2H]c1ccc2c(N3C[C@H](CN4CCN(c5ccc(N6C[C@@H](N)[C@H](OC)C6)nc5)CC4)O[C@H](C)C3)ccc(C#N)c2n1 [Example 143, 5-[(2S,6R)-2-[[4-[6-[(3R,4R)-3-amino-4-methoxy-pyrrolidin-1-yl]-3-pyridyl]piperazin-1-yl]methyl]-6-methyl-morpholin-4-yl]-2-deuterio-quinoline-8-carbonitrile]",> 10,> 20,>476,>1250,>212
12.5,"[2H]c1ccc2c(N3C[C@H](CN4CCN(c5ccc(N6CC7(CNCCO7)C6)nc5)CC4)O[C@H](C)C3)ccc(C#N)c2n1 [Example 152, 2-deuterio-5-[(2R,6S)-2-methyl-6-[[4-[6-(5-oxa-2,8-diazaspiro[3.5]nonan-2-yl)-3-pyridyl]piperazin-1-yl]methyl]morpholin-4-yl]quinoline-8-carbonitrile]",–,–,–,–,–
